Test results published in article PMC8151276, “An Integrated Approach toward NanoBRET Tracers for Analysis of GPCR Ligand Engagement” (Molecules, 2021).

Target: T1, ADRA1D (Homo sapiens, UniProt P25100)
T1 construct: purchased Promega (in-house HiBiT-GPCR construct library, NanoBRET)
T1 sequence (P25100 1-572): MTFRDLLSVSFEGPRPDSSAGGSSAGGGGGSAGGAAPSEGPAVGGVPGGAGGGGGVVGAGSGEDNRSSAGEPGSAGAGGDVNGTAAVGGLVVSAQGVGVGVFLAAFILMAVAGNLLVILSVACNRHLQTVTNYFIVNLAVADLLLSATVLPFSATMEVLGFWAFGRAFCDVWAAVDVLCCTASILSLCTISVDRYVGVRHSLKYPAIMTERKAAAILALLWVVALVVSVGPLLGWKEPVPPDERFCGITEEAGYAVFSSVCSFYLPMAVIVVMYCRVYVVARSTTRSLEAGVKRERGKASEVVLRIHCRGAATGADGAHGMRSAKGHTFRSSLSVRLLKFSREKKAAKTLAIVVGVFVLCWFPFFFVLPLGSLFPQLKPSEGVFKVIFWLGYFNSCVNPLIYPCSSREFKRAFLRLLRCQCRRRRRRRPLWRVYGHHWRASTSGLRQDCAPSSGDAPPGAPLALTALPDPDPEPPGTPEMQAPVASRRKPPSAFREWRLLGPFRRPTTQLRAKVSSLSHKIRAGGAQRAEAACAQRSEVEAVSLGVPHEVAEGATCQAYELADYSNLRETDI
Test: NanoBRET screen HiBiT-ADRA1D in HEK293
Type: binding
Method: Each tracer candidate was screened across the entire library of HiBiT-GPCR constructs using NanoBRET as the detection modality. As depicted in Figure 4A, the specificity of interactions was evaluated through decrease in BRET due to competitive displacement of a bound tracer by excess parental compound. Each tracer was analyzed for binding to each HiBiT-GPCR fusion in the absence and in the presence of competing parental compound. Briefly, HEK293 cells were transfected with HiBiT-GPCR constructs diluted into promoterless DNA to reduce expression and maximize translocation to the cell surface. Each tracer candidate was then screened at concentrations of 1 μM and 0.1 μM across cells expressing these fusions. Cells were treated for 1.5 h with tracer either alone or in the presence of 20 μM competing parental compound (i.e., control). BRET was measured upon addition of purified LgBiT and subsequent complementation with HiBiT genetically fused to a GPCR. The specificity of interactions was assessed through a decrease in BRET signal due to competitive displacement of the bound tracer. To further gauge the robustness of these interactions, the fold response over the control (i.e., BRETtracer/BRETcontrol) was calculated. We chose a 1.5-fold response, which translates to ≥7-fold signal over noise as the minimal threshold required to score an interaction as positive.
HiBiT-GPCR DNA constructs were diluted in 10 mM Tris pH 8 to a final concentration of 0.01 μg/μL, arrayed in 96-well plates and stored at −20 °C. For transfection, HEK293 cells were suspended in Opti-MEM (without phenol red) supplemented with 2% fetal bovine serum (Seradigm) and 100 units/mL penicillin–streptomycin (Gibco) at a final concentration of 220,000 cells/mL and dispensed into white 96-well plates at 90 μL/well. Subsequent transfections and screens were carried using an Agilent Bravo Automated Liquid Handling Platform. First, the 96-well HiBiT DNA arrays were diluted 25-fold in Opti-MEM (without serum or phenol red) to a final concentration of 0.0004 μg/μL and 20 μL of the diluted DNAs were transferred into new 96-well plates. Next, promoterless carrier DNA (1 μg/μL) was diluted 25-fold (0.04 μg/μL) and then dispensed into the diluted arrays at 20 μL/well. Following brief mixing, Viafect transfection reagent (Promega) diluted 16-fold into Opti-MEM was dispensed into the plates at 40 μL/well. After mixing by pipetting, plates were incubated for 10 min on the pipetting station deck. The DNA-transfection reagent complexes were then added to plates containing cells. To facilitate the screen, 10 μL of DNA-transfection reagent complexes were added in duplicates to the top 4 and bottom 4 rows, resulting in two identical 48-well arrays per plate. Plates with transfected cells were incubated for 18–20 h at 37 °C/5% CO2. A screen of each tracer across the entire library using two different concentrations requires duplicate plates of transfected cells. Depending on the number of tracers being screened, transfections can be scaled up using the same ratios. The next day, for each tracer, four 20× screening solutions in tracer dilution buffer (Promega) were prepared: two duplicates at final concentration of 20 μM and two duplicates at a final concentration of 2 μM. […] The four resulting solutions were diluted 4-fold in Opti-MEM without serum or phenol red to generate 5× solutions (5 µM and 0.5 µM tracer +/− 100 μM competing compound). To screen the library, a BioTek MultiFlo FX liquid dispenser was used to dispense 22.5 µL of tracer solution to the top 4 rows and 22.5 µL tracer + competing compound solution to the 4 bottom rows. Plates were briefly mixed on an orbital shaker and incubated for 1.5 h at room temperature. […] Plates were briefly mixed on an orbital shaker and incubated for 15 min to allow complementation.

CCOC(=O)c1cc(C#N)c(N2CCC(C(=O)NS(=O)(=O)Cc3ccccc3/C=C/C(=O)NCCNC(=O)CCc3ccc4n3[B-](F)(F)[N+]3=C(c5ccc[nH]5)C=CC3=C4)CC2)nc1C [AZD1283-1-NB590]
NanoBRET Fold Response (ADRA1D, 0.1μM): 1.02
NanoBRET Fold Response (ADRA1D, 1μM): 1.06

N#CN=C(NCCCOc1cccc(CN2CCCCC2)c1)NCCNC(=O)CCOCCOCCOCCOCCNC(=O)CCc1ccc2n1[B-](F)(F)[N+]1=C(c3ccc[nH]3)C=CC1=C2 [Aminopotentidine-2-NB590]
NanoBRET Fold Response (ADRA1D, tracer 0.1μM): 0.97

CN(C)CCC=C1c2ccccc2CCc2ccc(C(=O)NCCNC(=O)CCOCCOCCOCCOCCNC(=O)CCc3ccc4n3[B-](F)(F)[N+]3=C(c5ccc[nH]5)C=CC3=C4)cc21 [Amitriptyline-a-2-NB590]
NanoBRET Fold Response (tracer at 0.1μM): 1.08
NanoBRET Fold Response (tracer at 1μM): 1.11

CN(C)CCC=C1c2ccccc2CCc2ccc(C(=O)NCCNC(=O)CCOCCOCCOCCOCCNC(=O)CCc3ccc4n3[B-](F)(F)[N+]3=C(c5ccc[nH]5)C=CC3=C4)cc21 [Amitriptyline-b-2-NB590]
NanoBRET Fold Response (tracer at 0.1μM, listed as amitriptyline-b-2-NB590): 1.05
NanoBRET Fold Response (tracer at 1μM, listed as amitriptyline-b-2-NB590): 1.07

CN(CCC=C1c2ccccc2CCc2ccccc21)C(=O)CCOCCOCCOCCOCCNC(=O)CCc1ccc2n1[B-](F)(F)[N+]1=C(c3ccc[nH]3)C=CC1=C2 [Amitriptyline-e-2-NB590]
NanoBRET Fold Response (tracer at 1μM): 1.07

COc1ccc2c(n1)c(CCNC(C)=O)cn2CCNC(=O)CCc1ccc2n1[B-](F)(F)[N+]1=C(c3ccc[nH]3)C=CC1=C2 [Azamelatonin-1-NB590]
NanoBRET Fold Response (0.1μM tracer): 1.04
NanoBRET Fold Response (1μM tracer): 0.92

COc1ccc2[nH]c(-c3ccc(CNC(=O)CCOCCOCCOCCOCCNC(=O)CCc4ccc5n4[B-](F)(F)[N+]4=C(c6ccc[nH]6)C=CC4=C5)cc3)c(CCNC(C)=O)c2n1 [AzomelatoninICO9-2-NB590]
NanoBRET Fold Response (0.1μM tracer): 0.81
NanoBRET Fold Response (1μM tracer): 0.96

O=C(CCOCCOCCOCCOCCNC(=O)CCc1ccc2n1[B-](F)(F)[N+]1=C(c3ccc[nH]3)C=CC1=C2)NCCCN1CCN(C2=Nc3cc(Cl)ccc3Nc3ccccc32)CC1 [Clozapine-a-2-NB590]
NanoBRET Fold Response (ADRA1D, 0.1μM tracer): 1.21
NanoBRET Fold Response (ADRA1D, 1μM tracer): 1.08

O=C(CCOCCOCCOCCOCCNC(=O)CCc1ccc2n1[B-](F)(F)[N+]1=C(c3ccc[nH]3)C=CC1=C2)NCCCN1CCN(C2=Nc3ccccc3Oc3ccc(Cl)cc32)CC1 [Loxapine-a-2-NB590]
NanoBRET Fold Response (ADRA1D, tracer 0.1μM): 1.07
NanoBRET Fold Response (ADRA1D, tracer 1μM): 1.24

COc1ccccc1N1CCN(CCCCN2C(=O)c3ccc(CNC(=O)CCOCCOCCOCCOCCNC(=O)CCc4ccc5n4[B-](F)(F)[N+]4=C(c6ccc[nH]6)C=CC4=C5)cc3C2=O)CC1 [NAN-190-2-NB590]
NanoBRET Fold Response (ADRA1D, tracer 0.1μM): 1.10
NanoBRET Fold Response (ADRA1D, tracer 1μM): 1.13

COc1ccccc1N1CCN(CCCCN2C(=O)c3ccc(CNC(=O)CCOCCNC(=O)c4ccc(CNC(=O)CCc5ccc6n5[B-](F)(F)[N+]5=C(c7ccc[nH]7)C=CC5=C6)cc4)cc3C2=O)CC1 [NAN-190-3-NB590]
NanoBRET Fold Response (ADRA1D, tracer 1μM): 1.16

O=C(CCc1ccc2n1[B-](F)(F)[N+]1=C(c3ccc[nH]3)C=CC1=C2)NCc1ccc(C(=O)NCCOCCC(=O)N[C@@H]2CC[C@@]3(O)[C@H]4Cc5ccc(O)c6c5[C@@]3(CCN4CC3CC3)[C@H]2O6)cc1 [Naltrexone-3-NB590]
NanoBRET Fold Response (ADRA1D, tracer 0.1μM): 1.36
NanoBRET Fold Response (ADRA1D, tracer 1μM): 1.31

Cc1cc2c(s1)Nc1ccccc1N=C2N1CCN(CCCNC(=O)CCOCCOCCOCCOCCNC(=O)CCc2ccc3n2[B-](F)(F)[N+]2=C(c4ccc[nH]4)C=CC2=C3)CC1 [Olanzapine-a-2-NB590]
NanoBRET Fold Response (ADRA1D, tracer 1μM): 1.06

O=C(CCc1ccc2n1[B-](F)(F)[N+]1=C(c3ccc[nH]3)C=CC1=C2)NCc1ccc(C(=O)NCCOCCOCCNCC(O)COc2cccc3ccccc23)cc1 (stereo not shown) [Propranolol-3-NB590]
NanoBRET Fold Response (ADRA1D, 0.1μM): 1.11
NanoBRET Fold Response (ADRA1D, 1μM): 1.09

O=C(CCc1ccc2n1[B-](F)(F)[N+]1=C(c3ccc[nH]3)C=CC1=C2)NCCOCCOCCNC(=O)OCCOCCN1CCN(C2=Nc3ccccc3Sc3ccccc32)CC1 [Quetiapine-a-2-NB590]
NanoBRET Fold Response (ADRA1D, tracer 0.1μM): 1.13
NanoBRET Fold Response (ADRA1D, tracer 1μM): 1.06

Cc1nc2n(c(=O)c1CCN1CCC(c3noc4cc(F)ccc34)CC1)CCCC2OC(=O)NCCOCCOCCOCCOCCNC(=O)CCc1ccc2n1[B-](F)(F)[N+]1=C(c3ccc[nH]3)C=CC1=C2 (stereo not shown) [Risperidone-2-NB590]
NanoBRET Fold Response (ADRA1D, tracer 0.1μM): 1.27
NanoBRET Fold Response (ADRA1D, tracer 1μM): 1.16

CC(C)N(CC[C@H](c1ccccc1)c1cc(CCNC(=O)CCOCCOCCOCCOCCNC(=O)CCc2ccc3n2[B-](F)(F)[N+]2=C(c4ccc[nH]4)C=CC2=C3)ccc1O)C(C)C [Tolterodine-2-NB590]
NanoBRET Fold Response (ADRA1D, tracer 0.1μM): 0.95
NanoBRET Fold Response (ADRA1D, tracer 1μM): 1.00

CC(C)N(CC[C@H](c1ccccc1)c1cc(CCNC(=O)c2ccc(CNC(=O)CCc3ccc4n3[B-](F)(F)[N+]3=C(c5ccc[nH]5)C=CC3=C4)cc2)ccc1O)C(C)C [Tolterodine-BZ-NB590]
NanoBRET Fold Response (ADRA1D, tracer 0.1μM): 1.15
NanoBRET Fold Response (ADRA1D, tracer 1μM): 1.05

CCCn1c(=O)c2[nH]c(-c3ccc(OCC(=O)NCCNC(=O)CCOCCNC(=O)c4ccc(CNC(=O)CCc5ccc6n5[B-](F)(F)[N+]5=C(c7ccc[nH]7)C=CC5=C6)cc4)cc3)nc2n(CCC)c1=O [XAC-3-NB590]
NanoBRET Fold Response (ADRA1D, tracer 0.1μM): 1.02
NanoBRET Fold Response (ADRA1D, tracer 1μM): 1.10
